Test results from patent publication US12564600B2, “System for enhancing therapeutic compliance of the anti-cancer compound E7766” (Eisai R&D Management Co., Ltd., priority 2019, dated 2026).

System: sandwich-cultured human hepatocytes (SCHH)
Experiment: Hepatic uptake in sandwich-cultured human hepatocytes
Assay type: in vitro ADME
Description: Hepatic uptake and hepatobiliary disposition of Compound 1 was evaluated in sandwich-cultured human hepatocytes (SCHH) prepared from one donor. For assessing hepatic uptake, Compound 1 was incubated for 1, 5, and 10 minutes and the solutions were collected and frozen at −80° C. until process for bioanalysis. The wells were then washed three times with ice cold Plus (+) Buffer and were frozen at −80° C. until processed for bioanalysis. Biliary excretion of compound 1 was assessed in SCHH utilizing B-CLEAR® Technology. Briefly, cell culture medium was removed, and hepatocytes were washed twice with warm Plus (+) or Minus (−) Buffer to maintain or disrupt tight junctions, respectively. The wash solutions were removed and replaced with fresh Plus (+) Buffer or Minus (−) Buffer. The hepatocytes were conditioned for 10 minutes at 37° C. The conditioning solutions were removed and replaced with dosing solutions for Compound 1. Following a 20 minute incubation, the solutions were collected and frozen at −80° C. until process for bioanalysis. The wells were then washed three times with ice cold Plus (+) Buffer. The plates were frozen at −80° C. until processed for bioanalysis. The biliary excretion index (BEI) was calculated according to following equation: […]

concentration at which hepatic uptake is saturated (SCHH): > 1000 nM
dose proportionality of hepatic uptake (SCHH, 0.3 to 1 μM, 1 to 5 minutes of exposure): approximately dose-proportional
hepatic uptake at 4° C. relative to 37° C. (SCHH, incubation at 4° C.): < 7.7 % of 37 °C
mechanism of uptake in human hepatocytes (human hepatocytes): temperature-dependent active uptake
SMILES: O=[P@]1(S)OC[C@H]2O[C@@H]3[C@H](F)[C@@H]2O[P@](=O)(S)OC[C@H]2O[C@H]([C@H](F)[C@@H]2O1)n1cnc2c(ncnc21)NC/C=C/CNc1ncnc2c1ncn23 [Compound 1]
inhibition of hepatocyte uptake by transporter inhibitors (human hepatocytes, Rifampin, tetraethylammonium): could be inhibited by Rifampin but not by tetraethylammonium
